In ChEMBL document CHEMBL4011596, “Design, synthesis, and biological evaluation of a highly water-soluble psoralen-based photosensitizer” (Bioorg Med Chem, 2017):
Active and inactive are the calls of the source. The calls are words filed in the database; no cut-off is given here.

How the values were obtained:
BALB/3T3 [1] = assay: Photocytotoxicity against mouse BALB/3T3 cells assessed as cell death at 2.9 uM preincubated for 48 hrs followed by 3.3 J/cm2 UV light irradiation for 500 sec measured after 18 hrs by Alamar blue assay relative to control; assay type: functional
[2] = Induction of singlet oxygen production in DMSO assessed as decrease in DPBF level by measuring quantum yield after irradiation with halogen light by spectroscopic analysis relative to control; design: scale not given: the % may be the effect or the level left
BALB/3T3 [3] = assay: Photocytotoxicity against mouse BALB/3T3 cells at >42 uM preincubated for 48 hrs followed by 3.3 J/cm2 UV light irradiation for 500 sec measured after 18 hrs by Alamar blue assay; assay type: functional, cell-based

Row | SMILES | Activity (BALB/3T3 [1]) | Activity [2] | Activity (BALB/3T3 [3])
1 | COc1c2occc2c(Cn2cc(CO[C@@H]3O[C@H](CO)[C@@H](O)[C@H](O)[C@H]3O)nn2)c2ccc(=O)oc12 | 15% | 24% | Active
2 | COc1c2occc2c(Cn2cc(CO[C@@H]3O[C@H](CO)[C@H](O)[C@H](O)[C@H]3O)nn2)c2ccc(=O)oc12 | – | 24% | Active
3 | O=c1ccc2cc3ccoc3cc2o1 | – | 17% | Active
